Reference: patent publication US8486991B2, “Enantiomerically pure phosphoindoles as HIV inhibitors” (Idenix Pharmaceuticals, Inc., priority 2006, dated 2013)
“Also recorded” adds a separate entry of the source. Like-named read-outs stand apart in the source and are kept apart here.

Experiments:
CYP2C9 = CYP2C9 (Homo sapiens, UniProt P11712); assay: Human liver microsomal CYP450 inhibition, CYP2C9; settings: for Type of inhibition, CYP2C9 (Diclofenac): human liver microsomes
Protocol: In addition, the type of inhibition was also evaluated.
Enzyme kinetic studies of cytochrome P450 isozyme inhibition were conducted using human liver microsomes.
Probe substrate for 2C8 was paclitaxel, probe substrate for 2C9 was diclofenac and for 3A4 probe substrates were midazolam and testosterone.

[1] = In vitro half-life in liver microsomes, human; type: in vitro ADME; settings: up to one hour, longer half-lives are extrapolated, n=1
Protocol: (§1) In vitro metabolism was assessed using liver microsomes for all species. Compounds were incubated at 1 μM with liver microsomes for up to one hour. Reported half-lives greater than the total incubation time are extrapolated values. Extracts were assayed for disappearance of parent compound by LC-MS/MS detection.
(§2) Data represents one independent experiment conducted.

[2] = Compound depletion in hepatocytes, monkey; type: in vitro ADME; settings: up to 2 hours, read-out: t½, Compound Depletion in Hepatocytes, Monkey
Protocol: (§3) Fresh hepatocytes were plated onto collagen-coated plates and exposed to test compounds at 1 μM for up to 2 hours. Tissue culture medium was assayed for compound depletion by LC/MS detection. Values in Table 23 represent independent experiments from 5 to 7 donors.

HIV-2 ROD = HIV-2 ROD WT in H9 cell assay; type: cell-based
Protocol: The susceptibility of HIV type 2 ROD in H9 cells to Compound I and Compound III was determined against zidovudine (AZT) as a control.

[3] = Compound depletion in hepatocytes, dog; type: in vitro ADME; settings: up to 2 hours, read-out: t½, Compound Depletion in Hepatocytes, Dog
Protocol: as §3

[4] = Compound depletion in hepatocytes, human; type: in vitro ADME; settings: up to 2 hours; for t½, Compound Depletion in Hepatocytes, Human: 1 μM; for half-life at 1 μM: human, read-out: t½, Compound Depletion in Hepatocytes, Human
Protocol: as §3

[5] = In vitro half-life in liver microsomes, dog; type: in vitro ADME; settings: up to one hour, longer half-lives are extrapolated, n=1
Protocol: as §1, §2

wild-type HIV-1 virus = assay: In vitro drug-drug interaction with NRTIs and PIs, MT-4 cells, 45% HS; type: cell-based; settings: 45% human serum, low (1×) and high (5×) concentration
Protocol: The in vitro effect of each antiretroviral drug on the antiviral activity of either test article was tested in triplicate on wild-type HIV-1 virus infection of MT-4 human T cells using a standard drug susceptibility assay (DSA) performed in 45% human serum (HS) to provide a better estimate of interactions that would occur under protein binding conditions found in vivo. Compound I or Compound III were titrated alone or in combination with each NRTI or PI.
The impact of each NRTI or PI on the efficacy of Compound I or Compound III was tested at two different drug concentrations, a “low” (1×) and a “high” (5×) concentration; the high concentration used for each compound was determined from pilot experiments conducted to ensure that measurable inhibition values could still be obtained in the presence of 45% HS.
These in vitro drug-drug interaction studies were powered primarily to determine the potential for negative interactions between the different classes of HIV drugs, rather than to examine the potential for synergy between the different agents.

[6] = molecular target: T1, HIV-1 RT L1001 (L100I) mutant enzyme (Human immunodeficiency virus type 1 group M subtype B, UniProt P03366, L699I); assay: biochemical; settings: for Average Fold Changes ± Standard Deviation, L1001: Table 4
T1 construct: Antiviral in vitro activity against site-directed mutant HIV-1 RT enzymes
Description: (§4) In Vitro Antiviral Activity Against Additional Mutant HIV RT Enzymes
(§5) The studies are summarized in the text that follows.

[7] = molecular target: T2, HIV-1 RT E138K mutant enzyme (Human immunodeficiency virus type 1 group M subtype B, UniProt P03366, E737K); assay: biochemical; settings: for Average Fold Changes ± Standard Deviation, E138K: Table 4
T2 construct: Antiviral in vitro activity against site-directed mutant HIV-1 RT enzymes
Description: as §4, §5

[8] = molecular target: T3, HIV-1 RT Y188L mutant enzyme (Human immunodeficiency virus type 1 group M subtype B, UniProt P03366, Y787L); assay: biochemical; settings: for Average Fold Changes ± Standard Deviation, Y188L: Table 4
T3 construct: Antiviral in vitro activity against site-directed mutant HIV-1 RT enzymes
Description: as §4, §5

[9] = molecular target: T4, HIV-1 RT V106M mutant enzyme (Human immunodeficiency virus type 1 group M subtype B, UniProt P03366, V705M); assay: biochemical; settings: for Average Fold Changes ± Standard Deviation, V106M: Table 4
T4 construct: Antiviral in vitro activity against site-directed mutant HIV-1 RT enzymes
Description: as §4, §5

[10] = molecular target: T5, HIV-1 RT V1081 (V108I) mutant enzyme (Human immunodeficiency virus type 1 group M subtype B, UniProt P03366, V707I); assay: biochemical; settings: for Average Fold Changes ± Standard Deviation, V1081: Table 4
T5 construct: Antiviral in vitro activity against site-directed mutant HIV-1 RT enzymes
Description: as §4, §5

[11] = molecular target: T6, HIV-1 RT L1001/K103N (L100I/K103N) mutant enzyme (Human immunodeficiency virus type 1 group M subtype B, UniProt P03366, K702N/L699I); assay: biochemical; settings: for Average Fold Changes ± Standard Deviation, L1001/K103N: Table 4
T6 construct: Antiviral in vitro activity against site-directed mutant HIV-1 RT enzymes
Description: as §4, §5

[12] = molecular target: T7, HIV-1 RT M184V mutant enzyme (Human immunodeficiency virus type 1 group M subtype B, UniProt P03366, M783V); assay: biochemical; settings: for Average Fold Changes ± Standard Deviation, M184V: Table 4
T7 construct: Antiviral in vitro activity against site-directed mutant HIV-1 RT enzymes
Description: as §4, §5

[13] = system: HIV-1 BH10 K103N mutant virus; assay: microbe, parasite or virus in culture; type: cell-based; settings: for EC50: unit inferred; for Fold Change, K103N: Table 7
[14] = Plasma protein binding by equilibrium dialysis, dog; type: in vitro ADME; settings: for fraction unbound: dog, read-out: Percentage Plasma Protein Binding, Dogs
Protocol: (§6) The in vitro plasma protein binding of compound I and compound III in rat, dog, monkey and human plasma was determined by equilibrium dialysis. Protein binding was assessed by equilibrium dialysis using rat, dog, monkey and human plasma. Samples were assayed by HPLC with LC-MS/MS detection. Plasma protein binding was high (>99%) for all species and for both compounds.

[15] = Plasma protein binding by equilibrium dialysis, monkey; type: in vitro ADME
Protocol: as §6

CYP2D6 = CYP2D6 (Homo sapiens, UniProt P10635); assay: Recombinant CYP450 inhibition, fluorometric, CYP2D6; type: in vitro ADME; design: from tissue; host or cells: pooled human liver microsomes; settings: read-out: percentage of inhibition at the highest concentration tested, CYP2D6
Sequence of CYP2D6 (P10635 whole entry, the tested form may be a part): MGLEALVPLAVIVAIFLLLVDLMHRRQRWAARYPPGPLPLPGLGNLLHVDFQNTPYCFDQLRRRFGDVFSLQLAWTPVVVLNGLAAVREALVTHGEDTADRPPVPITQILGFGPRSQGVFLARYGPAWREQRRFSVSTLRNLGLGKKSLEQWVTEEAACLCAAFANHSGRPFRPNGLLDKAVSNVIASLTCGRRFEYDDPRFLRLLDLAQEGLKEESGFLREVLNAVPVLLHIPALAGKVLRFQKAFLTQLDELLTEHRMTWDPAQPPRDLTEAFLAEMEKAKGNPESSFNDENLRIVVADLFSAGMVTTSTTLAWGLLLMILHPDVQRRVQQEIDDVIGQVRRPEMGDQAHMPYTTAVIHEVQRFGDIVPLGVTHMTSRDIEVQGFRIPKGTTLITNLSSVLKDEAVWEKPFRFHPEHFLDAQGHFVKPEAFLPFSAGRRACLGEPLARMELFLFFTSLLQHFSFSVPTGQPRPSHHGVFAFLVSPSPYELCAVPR
Protocol: Compounds were assayed using recombinant human microsomal proteins with fluorometric substrates. Signal was measured with a Fusion plate reader utilizing the appropriate excitation and emission wavelength set to detect the specific metabolite: […]

[16] = human, pooled human liver microsomes, probe diclofenac
[17] = Table 18, highest concentration assayed 1.25 μM
[18] = fresh hepatocytes plated on collagen-coated plates

Sequence of CYP2C9 (P11712 whole entry): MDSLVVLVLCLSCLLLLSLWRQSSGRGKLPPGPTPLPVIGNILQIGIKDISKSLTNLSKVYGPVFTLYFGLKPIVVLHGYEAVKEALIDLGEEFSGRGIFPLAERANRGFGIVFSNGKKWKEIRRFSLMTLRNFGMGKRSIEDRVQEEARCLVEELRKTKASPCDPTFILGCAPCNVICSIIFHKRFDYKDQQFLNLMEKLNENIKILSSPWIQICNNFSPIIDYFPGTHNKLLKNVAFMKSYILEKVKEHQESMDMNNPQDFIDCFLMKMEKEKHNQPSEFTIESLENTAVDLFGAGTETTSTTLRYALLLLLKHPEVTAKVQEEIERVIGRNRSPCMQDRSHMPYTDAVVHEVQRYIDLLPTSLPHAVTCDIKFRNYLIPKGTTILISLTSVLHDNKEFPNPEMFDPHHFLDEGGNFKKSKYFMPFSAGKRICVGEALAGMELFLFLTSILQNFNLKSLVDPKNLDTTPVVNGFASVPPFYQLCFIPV

SMILES | Ki (CYP2C9) [nM] | Type of inhibition, CYP2C9 (Diclofenac) (CYP2C9) | IC50 (CYP2C9; [16]) [nM] | EC50 Values (HIV-2 ROD; [17]) | t½, Compound Depletion in Hepatocytes, Human [4] | interaction with 7 NRTIs or 6 PIs (wild-type HIV-1 virus) | IC50 [6] [nM] | Average Fold Changes ± Standard Deviation, L1001 [6] [fold] | IC50 [7] [nM] | Average Fold Changes ± Standard Deviation, E138K [7] [fold] | IC50 [8] [nM] | Average Fold Changes ± Standard Deviation, Y188L [8] [fold] | IC50 [9] [nM] | Average Fold Changes ± Standard Deviation, V106M [9] [fold] | IC50 [10] [nM] | Average Fold Changes ± Standard Deviation, V1081 [10] [fold] | IC50 [11] [nM] | Average Fold Changes ± Standard Deviation, L1001/K103N [11] [fold] | IC50 [12] [nM] | Average Fold Changes ± Standard Deviation, M184V [12] [fold] | other results
CO[P@](=O)(c1cc(C)cc(/C=C/C#N)c1)c1c(C(N)=O)[nH]c2ccc(Cl)c(F)c12 [Compound I, (2-Carbamoyl-5-chloro-4-fluoro-1H-indol-3-yl)-[3-((E)-2-cyano-vinyl)-5-methyl-phenyl]-(R)-phosphinic acid methyl ester] | 1400 | competitive inhibition | < 10000 | failed to suppress HIV-2 ROD replication | limited in vitro metabolism | no negative interaction observed; also recorded: none of the seven HIV NRTI drugs or the six HIV PI drugs tested exhibited a measurable negative or antagonistic interaction | 160 ± 30 | 0.5 ± 0.2 | 4670 ± 910 | 15.5 ± 6.8 | 1250 ± 380 | 6.0 ± 1.7 | 230 ± 60 | 1.2 ± 0.5 | 1200 ± 710 | 4.0 ± 5.3 | 430 ± 330 | 2.4 ± 1.2 | 290 ± 80 | 1.7 ± 0.5 | Type of inhibition, CYP2C9 (Diclofenac) (CYP2C9; listed as compound I): competitive inhibition; Ki (CYP2C9; [16]): 1450 nM; half-life at 1 μM ([1]; microsomes): 121 min; half-life at 1 μM ([2]; hepatocytes): 63 ± 40 min; EC50 (HIV-2 ROD; Human immunodeficiency virus 2, H9, read-out: EC50 Values): > 1250 nM; half-life at 1 μM ([3]; hepatocytes): 28 ± 14 min; half-life at 1 μM ([4]; hepatocytes): 215 ± 48 min; half-life at 1 μM ([5]; microsomes): 19.3 min; EC50 ([13]; Human immunodeficiency virus 1, MT4, read-out: EC50, K103N, Example 16 comparative tables): 0.6 ± 0.2 nM; Fold Change, K103N [13]: 0.9 ± 0.4 fold; EC50 ([13]; read-out: EC50, K103N, Example 16 comparative tables): 0.9 nM; Percentage Plasma Protein Binding, Dogs [14]: 99.0%; fraction unbound ([14]; plasma): < 0.01; Percentage Plasma Protein Binding, Monkeys [15]: 99.9%; inhibition at 10 µM (CYP2D6; recombinant enzyme): 11.2%
CO[P@](=O)(c1cc(C)cc(/C=C/C#N)c1)c1c(C(N)=O)[nH]c2ccc(Cl)cc12 [Compound III, (2-Carbamoyl-5-chloro-1H-indol-3-yl)-[3-((E)-2-cyano-vinyl)-5-methyl-phenyl]-(R)-phosphinic acid methyl ester] | 930 | competitive inhibition | < 10000 | failed to suppress HIV-2 ROD replication | limited in vitro metabolism | no negative interaction observed; also recorded: none of the seven HIV NRTI drugs or the six HIV PI drugs tested exhibited a measurable negative or antagonistic interaction | 130 ± 60 | 0.6 ± 0.6 | 2990 ± 180 | 13.7 ± 1.9 | 1150 ± 360 | 7.0 ± 5.9 | 200 ± 60 | 1.0 ± 0.3 | 830 ± 350 | 3.8 ± 3.8 | 400 ± 260 | 1.8 ± 0.8 | 170 ± 80 | 0.8 ± 0.3 | Type of inhibition, CYP2C9 (Diclofenac) (CYP2C9; listed as compound III): competitive inhibition; half-life at 1 μM ([1]; liver microsomes): 154 min; half-life at 1 μM [2, 18]: 52 ± 24 min; EC50 (HIV-2 ROD; Human immunodeficiency virus 2, H9, Table 18, highest concentration assayed 1.25 μM, read-out: EC50 Values): > 1250 nM; half-life at 1 μM [3, 18]: 21 ± 10 min; half-life at 1 μM [4, 18]: 125 ± 55 min; half-life at 1 μM ([5]; liver microsomes): 13.2 min; Fold Change, K103N [13]: 1.2 ± 0.4 fold; Percentage Plasma Protein Binding, Dogs [14]: 99.4%; fraction unbound ([14]; dog plasma): < 0.01; Percentage Plasma Protein Binding, Monkeys [15]: 99.9%; inhibition at 10 µM (CYP2D6; recombinant human CYP2D6 microsomal protein): 15.2%
